# Data reported in patent EP4737450A1 (Longwood Pharmaceuticals (Hangzhou) Co., Ltd, priority 2023, dated 2025).
# pIC50: −log10 of the molar value.
# Columns and labels:
# [1] = molecular target: FXIa (Homo sapiens, UniProt P03951); experiment: Inhibitory activity against FXIa in vitro (biochemical assay)
# Procedure, shortened: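 Compounds were dispensed acoustically from DMSO and tested in duplicate. IC50 values came from nonlinear regression curve fitting.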
# [2] = molecular target: T1, plasma kallikrein (PKa) (Homo sapiens, UniProt P03952); experiment: Inhibitory activity against plasma kallikrein in vitro (fluorescence intensity enzyme assay, Pro-Phe-Arg-AMC substrate); assay type: biochemical; details: Pro-Phe-Arg-AMC substrate
# T1 construct: purchased R & D 2497-SE
# T1 sequence (P03952 391-638 limits assumed): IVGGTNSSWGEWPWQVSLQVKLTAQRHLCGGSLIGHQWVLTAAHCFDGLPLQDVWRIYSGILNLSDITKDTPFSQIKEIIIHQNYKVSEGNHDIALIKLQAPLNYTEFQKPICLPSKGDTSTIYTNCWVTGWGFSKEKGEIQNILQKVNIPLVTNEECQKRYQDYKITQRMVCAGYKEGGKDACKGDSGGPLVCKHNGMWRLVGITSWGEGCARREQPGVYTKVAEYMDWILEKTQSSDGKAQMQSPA
# T1 sequence (P03952 20-390 partner limits assumed): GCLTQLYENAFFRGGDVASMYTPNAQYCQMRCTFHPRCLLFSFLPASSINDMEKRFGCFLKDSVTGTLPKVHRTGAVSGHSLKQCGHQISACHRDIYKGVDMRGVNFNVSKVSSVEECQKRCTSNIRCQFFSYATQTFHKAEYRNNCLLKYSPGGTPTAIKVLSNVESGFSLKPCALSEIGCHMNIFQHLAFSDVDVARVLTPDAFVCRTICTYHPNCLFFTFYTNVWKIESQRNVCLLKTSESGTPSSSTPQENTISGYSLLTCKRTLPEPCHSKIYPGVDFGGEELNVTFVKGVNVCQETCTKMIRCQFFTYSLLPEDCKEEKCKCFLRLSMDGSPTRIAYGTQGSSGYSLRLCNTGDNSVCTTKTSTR
# Procedure, shortened: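 Fluorescence intensity enzyme assay with 10 nM enzyme and 60 µM Pro-Phe-Arg-AMC (final concentrations). Compounds in DMSO, tested in duplicate over a dose series. IC50 from nonlinear regression curve fitting.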
# [3] = molecular target: T1, plasma kallikrein (PKa); experiment: PKa inhibition in kaolin-activated human platelet-poor plasma (PPP); assay type: biochemical; details: Pro-Phe-Arg-AMC substrate, fluorescence signal
# Procedure: Test Example 2. Evaluation of the compounds of the present invention in terms of PKa Inhibition in Kaolin-Activated Human PPP: Platelet-poor plasma (PPP) obtained from human whole blood, anticoagulated with Na - Citrate, was incubated with various concentrations of the test compounds and 25, 75, 250, or 750 µg/mL kaolin in assay buffer for 20 minutes at 37°C, so that a concentration response of the test compounds was obtained with respect to various kaolin concentrations. The positive drug was diluted in accordance with the reference concentration and diluted 3-fold with the diluent as the first point.
# 50 nL of compounds were then transferred to a 384 assay plate containing 2 replicates per well. The 384 assay plate was centrifuged at 1000 rpm/min. 2.5 µL of human plasma working solution was added to each assay well. The 384 assay plate was centrifuged at 1000 RPM. 2.5 µL of kaolin working solution was added to each assay well. The 384 assay plate was centrifuged at 1000 RPM and incubated at 25°C for 20 minutes. 5 µL of Pro-Phe-Arg-AMC working solution was added to each assay well. The 384 assay plate was centrifuged at 1000 RPM and incubated at 25°C for 60 minutes. BMG reads the fluorescence signal.
# The percent inhibition of the compound was calculated according to the following formula: [formula]
# [4] = molecular target: KLK1 (Homo sapiens, UniProt P06870); experiment: Inhibitory activity against KLK1 in vitro (biochemical assay)
# Chain of KLK1 (P06870 25-262, species assumed): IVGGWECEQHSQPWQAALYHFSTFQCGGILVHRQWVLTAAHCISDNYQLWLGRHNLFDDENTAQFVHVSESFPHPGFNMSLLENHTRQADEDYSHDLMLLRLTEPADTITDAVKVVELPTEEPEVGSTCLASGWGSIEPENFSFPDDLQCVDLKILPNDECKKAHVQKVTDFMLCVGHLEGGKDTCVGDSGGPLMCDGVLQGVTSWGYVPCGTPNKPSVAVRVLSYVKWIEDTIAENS
# From the text: Test Example 1. Test of the inhibitory activities of the compounds of the present invention against plasma kallikrein (PKa), KLK1 and FXIa in vitro. […]
# [5] = plasma kallikrein enzyme assay, read-out: PKa IC50
# Chain of FXIa (P03951 388-625 limits assumed): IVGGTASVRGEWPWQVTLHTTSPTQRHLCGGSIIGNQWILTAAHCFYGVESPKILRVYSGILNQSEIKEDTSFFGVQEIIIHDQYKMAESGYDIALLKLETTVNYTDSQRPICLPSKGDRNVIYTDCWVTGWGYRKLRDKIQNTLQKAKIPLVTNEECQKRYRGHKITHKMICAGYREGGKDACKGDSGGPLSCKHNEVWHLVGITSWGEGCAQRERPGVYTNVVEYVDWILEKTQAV
# Chain of FXIa (P03951 19-387 partner limits assumed): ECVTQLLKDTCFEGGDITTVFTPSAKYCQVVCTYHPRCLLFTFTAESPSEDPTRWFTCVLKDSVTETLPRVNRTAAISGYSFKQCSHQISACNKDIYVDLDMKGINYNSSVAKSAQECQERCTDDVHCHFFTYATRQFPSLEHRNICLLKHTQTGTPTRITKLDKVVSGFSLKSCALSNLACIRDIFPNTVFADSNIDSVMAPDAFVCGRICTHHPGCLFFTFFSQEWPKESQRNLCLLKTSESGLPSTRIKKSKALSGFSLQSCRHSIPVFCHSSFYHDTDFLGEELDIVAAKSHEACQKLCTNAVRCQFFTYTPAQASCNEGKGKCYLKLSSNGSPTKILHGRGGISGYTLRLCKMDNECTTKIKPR
IC50 ([1]; values given in µM) [µM],"pIC50 [2, 5]",pIC50 [3],IC50 ([4]; values given in µM) [µM],IC50 ([1]; values in nM) [µM],IC50 ([4]; values in nM) [µM],"pIC50 ([2]; PKa IC50, plasma kallikrein enzyme assay)",Structure (SMILES)
> 10,9.81,7.88,> 10,,,,"Cc1cc(N)nc(C)c1CNC(=O)c1nn(Cc2ccc(Cn3ccccc3=O)cc2)cc1C1CCCO1 (stereo not drawn) [Compound 4, N-((6-amino-2,4-dimethylpyridin-3-yl)methyl)-1-(4-((2-oxopyridin-1(2H)-yl)methyl)benzyl)-4-(tetrahydrofuran-2-yl)-1H-pyrazole-3-carboxamide]"
> 10,9.29,8.17,> 10,,,,"COCc1nn(Cc2ccc(Cn3ccccc3=O)cc2)cc1C(=O)NCc1c(C)cc(N)nc1C [Compound 2, N-((6-amino-2,4-dimethylpyridin-3-yl)methyl)-3-(methoxymethyl)-1-(4-((2-oxopyridin-1(2H)-yl)methyl)benzyl)-1H-pyrazole-4-carboxamide]"
> 10,9.75,8.12,> 10,,,,"Cc1cc(N)nc(C)c1CNC(=O)c1cn(Cc2ccc(Cn3ccccc3=O)cc2)nn1 [Compound 1, N-((6-amino-2,4-dimethylpyridin-3-yl)methyl)-1-(4-((2-oxopyridin-1(2H)-yl)methyl)benzyl)-1H-1,2,3-triazole-4-carboxamide]"
> 10,9.80,8.17,> 10,,,,N=C(N)c1ccc(CNC(=O)c2coc(Cc3cn4cc(C5CC5)ccc4n3)n2)cc1 [Compound 37]
,> 10.30,8.67,,,,,N#Cc1cc(N2CC3C(C2)C3(F)F)ccc1Cn1cc(C(=O)NCc2ccc(C(=N)N)cc2)cn1 (stereo not drawn) [Compound 40]
> 10,9.41,,> 10,,,,Cc1cc(N)nc(C)c1CNC(=O)c1nnc(Cc2ccc(Cn3ccccc3=O)cc2)[nH]1 [Compound 44]
> 10,8.96,,> 10,,,,CCn1cnc2c1CC[C@H]2NC(=O)c1cn(Cc2ccc(Cn3ccccc3=O)cc2)nc1COC [Compound 130]
> 10,9.49,,> 10,,,,Cc1cc(C(=N)N)cc(C)c1CNC(=O)c1cnn(Cc2ccc(Cn3ccccc3=O)cc2)c1 [Compound 314]
> 10,8.57,,> 10,,,,N=C(N)c1ccc(CNC(=O)c2cnn(Cc3ccc(CC4CC4)c(F)c3)c2)cc1 [Compound 262]
> 10,9.28,,> 10,,,,Cc1cc2nccn2c(C)c1CNC(=O)c1cnn(Cc2ccc(Cn3ccccc3=O)cc2)c1 [Compound 94]
> 10,9.74,,> 10,,,,Cc1cc(N)nc(C)c1CNC(=O)c1ncn(Cc2cn3cc(C4CC4)ccc3n2)n1 [Compound 47]
> 10,9.74,,> 10,,,,N=C(N)c1ccc(CNC(=O)c2cnn(Cc3ccc(CC4CC4)cc3)c2)c(F)c1 [Compound 270]
> 10,10.22,,> 10,,,,N=C(N)c1ccc(CNC(=O)c2cnn(Cc3cnc(N4CC5C(C4)C5(F)F)c(F)c3)c2)cc1 (stereo not drawn) [Compound 374]
> 10,8.98,,> 10,,,,N=C(N)c1ccc(CNC(=O)c2cnn(Cc3cc(Cl)c(C(=O)C4CC4)c(Cl)c3)c2)cc1 [Compound 393]
> 10,10.52,,> 10,,,,Cc1cc(Cn2cc(C(=O)NCc3ccc(C(=N)N)cc3)cn2)cc(C)c1CC1CC1 [Compound 381]
,9.22,,,< 0.5,< 0.5,,"COCc1nn(Cc2ccc3ncc(Cl)cc3c2)cc1C(=O)NCc1c(C)cc(N)nc1C [Compound 5, N-((6-amino-2,4-dimethylpyridin-3-yl)methyl)-1-((3-chloroquinolin-6-yl)methyl)-3-(methoxymethyl)-1H-pyrazole-4-carboxamide]"
> 10,9.06,,> 10,,,,N=C(N)c1ccc(CNC(=O)c2cnn(Cc3ccc(OCC4CC4)c(C(F)(F)F)c3)c2)cc1 [Compound 385]
> 10,9.20,,> 10,,,,Cc1cc(N)nc(C)c1CNC(=O)c1ncn(Cc2c(F)c(F)c(Cn3ccccc3=O)c(F)c2F)n1 [Compound 22]
> 10,9.88,,> 10,,,,"Cc1cc(N)nc(C)c1CNC(=O)c1cnn(Cc2ccc3ncc(Cl)cc3c2)c1 [Compound 10, N-((6-amino-2,4-dimethylpyridin-3-yl)methyl)-1-((3-chloroquinolin-6-yl)methyl)-1H-pyrazole-4-carboxamide]"

IC50 ([1]; values given in µM) [µM],"pIC50 [2, 5]",pIC50 [3],IC50 ([4]; values given in µM) [µM],IC50 ([1]; values in nM) [µM],IC50 ([4]; values in nM) [µM],"pIC50 ([2]; PKa IC50, plasma kallikrein enzyme assay)",Structure (SMILES)
> 10,8.51,,> 10,,,,Cc1cc(N)nc(C)c1CNC(=O)c1ncn(Cc2cc(Cn3ccccc3=O)cs2)n1 [Compound 73]
> 10,9.22,,> 10,,,,Nc1ccnc(CNC(=O)c2cn(Cc3ccc(Cn4ccccc4=O)cc3)nc2C2COC2)c1F [Compound 274]
,8.91,,,< 0.5,< 0.5,,N#Cc1cc(N2CC3C(C2)C3(F)F)ccc1Cn1cc(C(=O)NCc2ccc(C(=N)N)cc2)cn1 (stereo not drawn) [Compound 8]
> 10,8.69,,> 10,,,,COCc1nn(Cc2ccc(Cn3ccccc3=O)cc2)cc1C(=O)NCc1ncc2cc[nH]c2c1F [Compound 364]
> 10,8.83,,> 10,,,,O=C(NCc1cc2ccncc2[nH]1)c1cn(Cc2ccc(Cn3ccccc3=O)cc2)nc1C(F)(F)F [Compound 155]
> 10,9.74,,> 10,,,,COCc1nn(Cc2ccc(C3CCCCC3)c(C(F)(F)F)c2)cc1C(=O)NCc1ccc(C(=N)N)cc1 [Compound 153]
> 10,9.46,,> 10,,,,"Cc1cc2nccn2c(C)c1CNC(=O)c1cn(Cc2ccc(Cn3ccccc3=O)cc2)nc1C(F)(F)F [Compound 142, N-((5,7-dimethylimidazo[1,2-a]pyridin-6-yl)methyl)-1-(4-((2-oxopyridin-1(2H)-yl)methyl]benzyl)-3-(trifluoromethyl)-1H-pyrazole-4-carboxamide]"
> 10,10.10,,> 10,,,,N=C(N)c1ccc(CNC(=O)c2cnn(Cc3ccc(N4CCC(F)(F)CC4)c(C(F)(F)F)c3)c2)cc1 [Compound 387]
> 10,9.36,,> 10,,,,Cc1nc(N)c(C)c(C)c1CNC(=O)c1cnn(Cc2ccc(Cn3ccccc3=O)cc2)c1 [Compound 256]
> 10,10.12,,> 10,,,,"Cc1cc(N)nc(C)c1CNC(=O)c1cn(Cc2ccc(Cn3ccccc3=O)cc2)nc1C(F)F [Compound 69, N-((6-amino-2,4-dimethylpyridin-3-yl)methyl)-3-(difluoromethyl)-1-(4-(2-oxopyridin-1(2H)-yl)methylbenzyl)-1H-pyrazole-4-carboxamide]"
> 10,8.98,,> 10,,,,N=C(N)c1ccc(CNC(=O)c2cnn(Cc3c(Cl)cc(CC4CC4)cc3Cl)c2)cc1 [Compound 347]
> 10,9.57,,> 10,,,,N=C(N)c1ccc(CNC(=O)c2cnn(Cc3cc(F)c(CC4CC4)c(F)c3)c2)cc1 [Compound 380]
> 10,8.73,,> 10,,,,COCc1nn(Cc2ccc(Cn3ccccc3=O)cc2)cc1C(=O)N[C@@H]1CCc2c1ncn2C [Compound 70]
> 10,9.05,,> 10,,,,Cc1cc(N)nc(C)c1CNC(=O)c1ncn(C(C)c2ccc(Cn3ccccc3=O)cc2)n1 (stereo not drawn) [Compound 50]
> 10,8.91,,> 10,,,,CCc1cc(N2CC3C(C2)C3(F)F)ccc1Cn1cc(C(=O)NCc2ccc(C(=N)N)cc2)cn1 (stereo not drawn) [Compound 16]
> 10,8.81,,> 10,,,,N=C(N)c1ccc(CNC(=O)c2cnn(Cc3cc(F)c(C(=O)C4CC4)c(F)c3)c2)cc1 [Compound 394]
> 10,10.02,,> 10,,,,Cc1cc(N)nc(C)c1CNC(=O)c1ncn(Cc2cc(Cl)c(Cn3ccccc3=O)cc2Cl)n1 [Compound 80]
> 10,,,> 10,,,8.86,CN1CCc2cnc(CNC(=O)c3cnn(Cc4ccc(Cn5ccccc5=O)cc4)c3)c(F)c21 [Compound 383]

Structure (SMILES),IC50 ([1]; values given in µM) [µM],"pIC50 [2, 5]",pIC50 [3],IC50 ([4]; values given in µM) [µM],IC50 ([1]; values in nM) [µM],IC50 ([4]; values in nM) [µM],"pIC50 ([2]; PKa IC50, plasma kallikrein enzyme assay)"
"Cc1cc(N)nc(C)c1CNC(=O)c1cnn(Cc2ccc(N3CC4C(C3)C4(F)F)cc2C#N)c1 (stereo not drawn) [Compound 7, N-((6-amino-2,4-dimethylpyridin-3-yl)methyl)-1-(2-cyano-4-(6,6-difluoro-3-azabicyclo[3.1.0]hexan-3-yl)benzyl)-1H-pyrazole-4-carboxamide]",> 10,> 10.29,,> 10,,,
